Where a SMILES comes first, the peptide text is derived from it. The star is where a group is joined. Cbz = O=C(OCc1ccccc1)*; CH2F = FC*
Tests used:
whole blood samples [1] = experiment: 18S DNA duplex real time PCR assay, increase of DNA in plasma of stored blood, example 5; format: cell-based, human; conditions: 20 μM caspase inhibitor in whole blood; storage at RT
whole blood samples [2] = experiment: DNA size distribution by chip gel electrophoresis (blood cell stability/DNA release); format: cell-based, human; conditions: 20 μM in 10 ml K2E blood; day 3 and day 7
Protocol: To separate the blood plasma from the whole blood, the blood samples were centrifuged for 15 min at 5000 rpm, and the obtained plasma samples were again centrifuged for 10 min at 16.000×g at 4° C.
The circulating, extracellular nucleic acids were purified from the obtained plasma samples using the QIAamp® Circulating NA Kit (QIAGEN, according to the handbook). In brief: • 10 ml sample input; • lysis: 1 ml Proteinase K and 8 ml Buffer ACL (QIAGEN) • binding: 18 ml Buffer ACB (QIAGEN) • wash-steps: unchanged and according to handbook • elution in 60 μl Buffer AVE (QIAGEN)
1.3.1 Measurement of the blood cell stability/DNA release by the determination of DNA size distribution using a chip gel electrophoresis (2100 Bioanalyzer; Agilent Technologies; Inc., USA) according to manufacturer's instruction (see handbook Agilent DNA 7500 and DNA 12000 Kit Guide), but 1.5 μl instead of 1 μl sample were transferred to the wells.
Each tested caspase inhibitor was added to whole blood samples (20 μM end concentration in 10 ml blood; blood was collected into Vacutainer K2E Tubes; BD). The whole blood sample was processed as described in section 1 (plasma preparation and nucleic acid isolation).
The eluted circulating cell-free DNA was separated by size using chip gel electrophoresis (for details on the method see above). […]

[3] = in DMSO (highest concentration listed in the cell); cited from earlier work

COC(=O)C[C@H](NC(=O)[C@H](C)NC(=O)[C@@H](NC(=O)OCc1ccccc1)C(C)C)C(=O)CF [Z-Val-Ala-Asp(OMe)-FMK] (Cbz-Val-Ala-Asp(OMe)-CH2F)
increase of DNA from day 0 to day 3 or 7 (whole blood samples [1]): more prominent on day 7
ladder-like pattern of bands (release and fragmentation of genomic DNA) compared to controls (whole blood samples [2]): reduced ladder-like pattern
solubility [3]: 20 mM, add 107 μl DMSO 10 mM, add 214 μl DMSO 5 mM, add 428 μl DMSO

Reference: patent US20160281133A1, “STABILIZATION AND ISOLATION OF EXTRACELLULAR NUCLEIC ACIDS” (QIAGEN GMBH, priority 2013, published 2016)
